Results published in patent US20250002471A1 (Gilead Sciences, Inc., priority 2020, published 2025).

Target: T1, TLR9 (Homo sapiens, UniProt Q9NR96)
T1 construct: lymphocytes, monocytes and dendritic cells that express TLR7, TLR8 and TLR9; endogenous in cells; host or cells: human PBMCs from healthy donors
T1 sequence (Q9NR96 26-1032): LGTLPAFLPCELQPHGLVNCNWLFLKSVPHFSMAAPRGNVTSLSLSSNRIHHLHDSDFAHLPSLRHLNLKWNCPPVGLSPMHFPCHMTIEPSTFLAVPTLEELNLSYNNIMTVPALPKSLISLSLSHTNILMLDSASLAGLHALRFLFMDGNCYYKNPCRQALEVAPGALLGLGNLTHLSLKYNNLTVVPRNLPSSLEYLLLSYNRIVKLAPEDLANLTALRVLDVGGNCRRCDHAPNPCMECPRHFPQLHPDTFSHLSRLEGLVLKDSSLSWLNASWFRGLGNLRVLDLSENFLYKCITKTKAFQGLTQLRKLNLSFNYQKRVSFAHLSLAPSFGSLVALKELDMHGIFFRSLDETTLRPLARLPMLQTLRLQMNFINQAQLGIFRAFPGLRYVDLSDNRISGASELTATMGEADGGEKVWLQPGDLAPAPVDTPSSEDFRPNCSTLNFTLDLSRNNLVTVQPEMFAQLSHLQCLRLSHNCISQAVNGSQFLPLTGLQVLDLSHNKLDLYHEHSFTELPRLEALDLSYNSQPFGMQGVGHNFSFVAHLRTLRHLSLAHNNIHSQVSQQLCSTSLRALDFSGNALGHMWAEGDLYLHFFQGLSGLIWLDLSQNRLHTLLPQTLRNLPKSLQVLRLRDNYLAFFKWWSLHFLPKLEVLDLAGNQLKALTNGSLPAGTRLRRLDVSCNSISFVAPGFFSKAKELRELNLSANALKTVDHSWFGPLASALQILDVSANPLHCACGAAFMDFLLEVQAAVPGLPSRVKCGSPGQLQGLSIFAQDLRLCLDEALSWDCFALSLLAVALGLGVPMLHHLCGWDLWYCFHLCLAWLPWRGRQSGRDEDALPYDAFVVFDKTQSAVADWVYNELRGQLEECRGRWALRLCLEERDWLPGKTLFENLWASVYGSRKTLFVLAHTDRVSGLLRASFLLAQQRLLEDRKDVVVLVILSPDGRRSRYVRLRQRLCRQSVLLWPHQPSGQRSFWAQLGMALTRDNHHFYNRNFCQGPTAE
Assay: Human PBMC cell-based assay, TLR9 agonist ODN-2216 stimulation, cytokine (IL-6 and IFNα) readout
Conditions: human PBMCs, ODN-2216 3 μM, 6 hours; Table 26; read-out: TLR-9 EC50
Summary of the method: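 Cryopreserved healthy-donor PBMCs (100,000 cells/well, RPMI-1640 + 10% FBS) preincubated 1 h at 37 °C with antagonist (10-point dose response), then stimulated 6 h with GS-986 (400 nM final, TLR7) or ODN-2216 (3 μM final, TLR9). Supernatant IL-6 and IFNα measured by electrochemiluminescence immunoassay; EC50 from sigmoidal fit.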

| EC50 | Structure (SMILES) |
| --- | --- |
| 0.0519 µM | Cc1cc(-c2[nH]c3cc(-c4ccc(N5CCNCC5)nc4)ccc3c2C)cc(C)n1 [Example 1, 2-(2,6-dimethylpyridin-4-yl)-3-methyl-6-(6-(piperazin-1-yl)pyridin-3-yl)-1H-indole] |
| 0.0375 µM | Cc1cc(-c2[nH]c3cc(-c4ccc(N5CCN(CCO)CC5)nc4)ccc3c2C)cc(C)n1 [Example 37, 2-(4-(5-(2-(2,6-dimethylpyridin-4-yl)-3-methyl-1H-indol-6-yl)pyridin-2-yl)piperazin-1-yl)ethan-1-ol] |
| 0.136 µM | Cc1cc(-c2[nH]c3cc(C4CCNCC4)ccc3c2C)cc(C)n1 [Example 48, 2-(2,6-dimethylpyridin-4-yl)-3-methyl-6-(piperidin-4-yl)-1H-indole] |
| 0.181 µM | Cc1cc(-c2[nH]c3cc(C4CCCNC4)ccc3c2C)cc(C)n1 (stereo not drawn) [Example 53] |
| 3.98 µM | Cc1cc(-c2[nH]c3cc(C4CCNCC4)ccc3c2C(C)C)cn2ncnc12 [Example 55] |
| 0.63 µM | Cc1c(-c2cc(C)c3ncnn3c2)[nH]c2cc(-c3ccc(N4CCNCC4)nc3)ccc12 [Example 71] |
| 0.186 µM | Cc1cc(-c2[nH]c3cc(-c4ccc(N5CCNCC5)nc4)ccc3c2C2CC2)cn(C)c1=O [Example 165] |
| 0.393 µM | CCc1c(-c2cc(C)c3ncnn3c2)[nH]c2cc(-c3ccc(N4CCNCC4)nc3)ccc12 [Example 167, 6-(3-ethyl-6-(6-(piperazin-1-yl)pyridin-3-yl)-1H-indol-2-yl)-8-methyl-[1,2,4]triazolo[1,5-a]pyridine] |
| 0.502 µM | CCc1c(-c2cc(OC)c3ncnn3c2)[nH]c2cc(-c3ccc(N4CCNCC4)nc3)ccc12 [Example 169] |
